Results: patent publication US4510144A, “Methods of imparting immunomodulating activity with dihydrothiazolo purine derivatives” (Newport Pharmaceuticals International, priority 1982, dated 1985)
Like-named read-outs stand apart in the source and are kept apart here.

How the values were obtained:
[1] = system: murine spleen cells, LPS induced (B-cells); test: LPS induced lymphocyte proliferation in mouse spleen cells in vitro; assay type: cell-based, mouse (Balb/C); settings: for activity at 0.01 µg/mL / activity at 0.1 µg/mL / activity at 1 µg/mL / activity at 2.5 µg/mL / activity at 5 µg/mL / activity at 25 µg/mL / activity at 50 µg/mL: Mus musculus, B-cell
From the text: (1) Mitogen-(Lipopolysaccharide, LPS or Con A) induced lymphocyte proliferation using murine spleen cells (in vitro)
1. […] LPS is a mitogen which acts preferentially on B-cells. […] Con A is considered a T-cell mitogen.
1. Balb/C male mice, 7-8 weeks old, are used up to 20-24 weeks of age.
2. The animals are sacrificed by cervical dislocation and the animals' left sides swabbed with 70% ethanol. An incision is made between the lower ribs and pelvis, laterally from front to back, and the skin retracted. Aseptic technique is to be observed from this point on.
3. The spleen is gently removed with sterile forceps. […] When all spleens have been collected and cleaned they are placed in a second petri dish containing 3 ml cold RPMI.
4. Spleen cell suspensions are prepared by gentle mincing of the tissue with a sterile blade and filtering through #100 stainless steel mesh.
6. An aliquot of the above suspension is prepared for cell counting as follows: 0.1 ml of suspension is diluted to 1.0 ml with 3% acetic acid and let stand at room temperature for at least five minutes. The sample is then diluted 1:100 with "Isoton II" (Curtis-Matheson Co.) and counted in a coulter counter.
MURINE SPLENOCYTE STIMULATION WITH CONCANAVALIN A (CON A), LIPOPOLYSACCHARIDE (LPS), AND ALLOGENEIC SPLENOCYTES (LMC).
There is set forth below the standard procedure which should be modified according to the solubility and other properties of the particular compound tested.
Add ~10 ml RPMI to 1.79 g HEPES and vortex until completely dissolved. […] Allow to warm temperature before use.
6. LPS (Sigma, E, coli serotype #011:84)--~1 mg/ml. […] Remove ~10 ml for dissolving HEPES (0.358 g) and filter HEPES solution. Add four 25 mg bottles of LPS to remaining media and incubate at 37° C. for 1 hour. Filter through 0.22 μm filters, add filtered HEPES, aliquot in 2 ml and store at -70° C.
8. Tritiated thymidine (^3 H-TdR, Schwartz-Mann, 6 Ci/mM). Remove a slightly larger volume of ^3 H-TdR than needed from vial with a 1 cc syringe and place volume in the cap of a small sterile plastic tube. […] Vortex thoroughly before adding to plates.
1. Animals are sacrificed by cervical dislocation killing one from each group and processing the cells individually before killing the next animal. Swab each animal with 70% ethanol before surgery. […] Use 8 vertical strokes (or enough to break up all tissue) with Teflon-tipped homogenizer. Filter each sample through a 100 mesh screen into a 50 ml tube. […] After all samples have been spun, vortex each briefly and let sit for 1 hour. Vortex each sample ~5 seconds, waiting ~10 seconds between each sample. Let sit 5 minutes, then pipet cell suspension into 5 ml (12×75 mm) tube being careful not to remove any sediment. Remove 50 ul cell suspension using micropipetter, carefully wipe pipet tip with kimwipe and pipet into 20 ml Isoton in Coulter counter vial, rinsing pipet several times in the Isoton. Add 6 drops of CyMet and swirl vial to mix. Use the following Coulter counter settings: Amplification-1, Threshold-10, and Aperture Current-1. Clean counter with Isoterge the morning of experiment and count background before standardizing with CH 0.60 Hematology Controls. After cell counts are obtained, dilute to 6×10^6 cells/ml with supplemented RPMI and aliquot into 3 tubes for the 3 assays.
1. Pipet 100 μl control media (supplemented RPMI) or appropriate dilution of mitogen (starting with lowest concentration) into microtiter plate using Titertek multi-channel pipetter. Place plates in 37° C. CO2 incubator with CO2 set at 0.5 after each plate has been pipetted. Pipet 100 μl responder cells into wells starting with most dilute mitogen concentration. Place plates in incubator as they are filled and after all plates are in incubator, let sit for 10-20 minutes. Wrap plates with plastic wrap, recover with top, replace in incubator, and reset CO2 to ~0.05. Save ~50 ml supplemented RPMI at 4° C. for thymidine dilution.

[2] = system: lymphocytes from normal volunteers (active E-rosettes); test: enhancement of active E-rosettes, lymphocytes from normal volunteers in vitro; assay type: cell-based; settings: for % E-rosettes (active): control 37
Method: The effects of NPT 16416 on stimulating formation of active rosettes when incubated with lymphocytes in vitro from normal volunteers is described in Table XII. It is important to note that 5×10^-8M concentration of NPT 16416 is capable of producing a 36.5% enhancement of Active E-Rosettes. The enhancement of Active E-Rosettes is biologically important because that fraction of lymphocytes (T-cells) which are the active rosettes are found to be deficient in tumor patients and virus infected individuals. Restoration of this deficiency should benefit the patient.

Oc1ncnc2c1nc1n2CCS1 [NPT 16416, 3-hydroxy-7,8-dihydrothiazolo-[3,2e]-purine]
activity at 0.01 µg/mL ([1]; read-out: Hi Mitogen D/C LPS): 105%
activity at 0.01 µg/mL ([1]; read-out: Lo Mitogen D/C LPS): 130%
activity at 0.1 µg/mL ([1]; drug 100 ng/ml, LPS 5 μg/ml, drug/control, read-out: Lo Mitogen D/C LPS): 157%
activity at 0.1 µg/mL ([1]; drug 100 ng/ml, LPS 100 μg/ml, drug/control, read-out: Hi Mitogen D/C LPS): 114%
activity at 1 µg/mL ([1]; drug 1,000 ng/ml, LPS 5 μg/ml, drug/control, read-out: Lo Mitogen D/C LPS): 135%
activity at 1 µg/mL ([1]; drug 1,000 ng/ml, LPS 5 μg/ml, read-out: LPS D/C (maximum values)): 201%
activity at 1 µg/mL ([1]; drug 1,000 ng/ml, LPS 100 μg/ml, drug/control, read-out: Hi Mitogen D/C LPS): 117%
activity at 2.5 µg/mL ([1]; drug 2,500 ng/ml, LPS 5 μg/ml, drug/control, read-out: Lo Mitogen D/C LPS): 136%
activity at 2.5 µg/mL ([1]; drug 2,500 ng/ml, LPS 100 μg/ml, drug/control, read-out: Hi Mitogen D/C LPS): 107%
activity at 5 µg/mL ([1]; drug 5,000 ng/ml, LPS 5 μg/ml, drug/control, P < 0.05, read-out: Lo Mitogen D/C LPS): 168%
activity at 5 µg/mL ([1]; drug 5,000 ng/ml, LPS 100 μg/ml, drug/control, read-out: Hi Mitogen D/C LPS): 105%
activity at 25 µg/mL ([1]; drug 25,000 ng/ml, LPS 5 μg/ml, drug/control, P < 0.005, read-out: Lo Mitogen D/C LPS): 249%
activity at 25 µg/mL ([1]; drug 25,000 ng/ml, LPS 5 μg/ml, read-out: LPS D/C (maximum values)): 236%
activity at 25 µg/mL ([1]; drug 25,000 ng/ml, LPS 100 μg/ml, drug/control, P < 0.025, read-out: Hi Mitogen D/C LPS): 157%
activity at 50 µg/mL ([1]; drug 50,000 ng/ml, LPS 5 μg/ml, drug/control, P < 0.005, read-out: Lo Mitogen D/C LPS): 280%
activity at 50 µg/mL ([1]; drug 50,000 ng/ml, LPS 100 μg/ml, drug/control, P < 0.005, read-out: Hi Mitogen D/C LPS): 189%
CPM + LPS ([1]; drug 10 ng/ml, LPS 5 μg/ml): 1,458 CPM
CPM + LPS ([1]; drug 10 ng/ml, LPS 100 μg/ml): 8,603 CPM
CPM + LPS ([1]; drug 100 ng/ml, LPS 5 μg/ml): 1,760 CPM
CPM + LPS ([1]; drug 100 ng/ml, LPS 100 μg/ml): 8,518 CPM
CPM + LPS ([1]; drug 1,000 ng/ml, LPS 5 μg/ml): 1,515 CPM
CPM + LPS ([1]; drug 1,000 ng/ml, LPS 100 μg/ml): 8,689 CPM
CPM + LPS ([1]; drug 2,500 ng/ml, LPS 5 μg/ml): 1,522 CPM
CPM + LPS ([1]; drug 2,500 ng/ml, LPS 100 μg/ml): 7,975 CPM
CPM + LPS ([1]; drug 5,000 ng/ml, LPS 5 μg/ml): 1,881 CPM
CPM + LPS ([1]; drug 5,000 ng/ml, LPS 100 μg/ml): 7,788 CPM
CPM + LPS ([1]; drug 25,000 ng/ml, LPS 5 μg/ml): 2,789 CPM
CPM + LPS ([1]; drug 25,000 ng/ml, LPS 100 μg/ml): 11,683 CPM
CPM + LPS ([1]; drug 50,000 ng/ml, LPS 5 μg/ml): 3,132 CPM
CPM + LPS ([1]; drug 50,000 ng/ml, LPS 100 μg/ml): 14,065 CPM
effect on B-cell response / LPS induced proliferation, in words ([1]; in vitro): enhance B-cell proliferation
augmentation of LPS induced lymphocyte proliferation ([1]; in vitro, mouse spleen cells): 30-180%
effect on B-cell response / LPS induced proliferation, in words ([1]; in vitro, listed as Ia): stimulating the B-cell response
% E-rosettes (active) ([2]; 5 × 10^-5 M): 43%
% E-rosettes (active) ([2]; 5 × 10^-7 M): 55.5%
% E-rosettes (active) ([2]; 5 × 10^-8 M): 62.5%
% E-rosettes (active) ([2]; 5 × 10^-9 M): 58.5%
% E-rosettes (active) ([2]; 5 × 10^-10 M): 42%
activation at 50 µM ([2]; Homo sapiens, Lymphocyte, 5 × 10^-5 M, read-out: % increase of active E-rosettes): 10%
activation at 0.5 µM ([2]; Homo sapiens, Lymphocyte, 5 × 10^-7 M, read-out: % increase of active E-rosettes): 23%
activation at 0.05 µM ([2]; Homo sapiens, Lymphocyte, 5 × 10^-8 M, read-out: % increase of active E-rosettes): 36.5%
activation at 0.005 µM ([2]; Homo sapiens, Lymphocyte, 5 × 10^-9 M, read-out: % increase of active E-rosettes): 34%
activation at 0.0005 µM ([2]; Homo sapiens, Lymphocyte, 5 × 10^-10 M, read-out: % increase of active E-rosettes): 7.6%
